Measured values reported in article PMC6832932, “Design and Selection of Novel C1s Inhibitors by In Silico and In Vitro Approaches” (Molecules, 2019).
Read-outs that look alike come from different tables or passages of the source.

Assays:
C1s [1] = molecular target: T1, C1s (Homo sapiens, UniProt P09871); settings: ref [49]; read-out: IC50 C1s, reported value; cited from earlier work
T1 construct: Recombinant C1s and C1r fragments (CCP1-CCP2-SP, the γB catalytic region); made in house
T1 sequence (P09871 438-688 limits assumed): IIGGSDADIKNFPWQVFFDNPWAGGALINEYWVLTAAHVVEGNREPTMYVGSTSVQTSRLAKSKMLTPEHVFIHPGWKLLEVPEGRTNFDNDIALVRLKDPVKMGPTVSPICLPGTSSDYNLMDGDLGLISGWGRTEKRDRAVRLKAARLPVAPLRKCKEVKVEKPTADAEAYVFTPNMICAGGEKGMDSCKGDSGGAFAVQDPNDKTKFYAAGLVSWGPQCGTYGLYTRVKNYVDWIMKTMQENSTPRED

C1s [2] = molecular target: T1, C1s; assay: C1s inhibition IC50 assay (thioester substrate Z-Lys-SBzl with DTNB, photometric); format: biochemical; settings: validation with FUT175; read-out: IC50 C1s (assay validation)
Source text: Recombinant C1s and C1r fragments (CCP1-CCP2-SP, the γB catalytic region) containing the serine protease domain were expressed in E. Coli BL21(DE3)pLysS host strain (transformed with pET-17b vector) in form of inclusion bodies; proteins were isolated, renatured and purified as published earlier. Recombinant C1s, isolated in intact proenzyme form, was activated by limited proteolysis using the recombinant, autoactivated C1r fragment. Activated C1s and C1r were separated using Q Sepharose HP (Amersham Biosciences, Little Chalfont, UK) anion exchange chromatography.
40 µL enzyme + 10 µL inhibitor compounds were incubated (10 min, RT), and 50 µL substrate solution (1 mM final concentration) was added; incubated for 45 min and finally absorbance was read (405 nm) with a Perkin Elmer Wallac 1420 Victor2 microplate reader.

C1s [3] = settings: ref [47]; cited from earlier work

IC50 (C1s [2])	Compound	IC50 (C1s [1])	IC50 (C1s [3])
2 nM	N=C(N)c1ccc2cc(OC(=O)c3ccc(N=C(N)N)cc3)ccc2c1 [FUT175, nafamostat, reference compound]	320 nM	
	O=c1oc(-c2ccccc2I)nc2ccccc12 [CID296008, 2-(2′-iodophenyl)-3,1-benzoxazin-4-one]		1250 nM
